The subject of the assay is Escherichia coli (E. coli—ATCC #10536). Nature of the assay: Automated assessment of efficacy in surfactant base (2.85% sodium cocoyl glycinate and 1.85% sodium lauroamphoacetate, pH 10.0), 15 seconds exposure. The class given is cell-based. To be noted: for No. of replicates showing growth (out of 4) / Δ OD 450 nm = OD450 (time = 16 hours) − OD450 (time zero), Mean / Δ OD 590 nm OD590 (time = 16 hours) − OD590 (time zero), Mean: alone, model surfactant solution.

As for `Cc1ccc(C(C)C)c(O)c1O` [3-isopropyl-6-methylbenzene-1,2-diol], where the note is “0.175% w/v”, the “No. of replicates showing growth (out of 4)” value turned out to be 4; the “Δ OD 450 nm = OD450 (time = 16 hours) − OD450 (time zero), Mean” value (“Δ OD 450 nm = OD450” for short) was −0.51; the “Δ OD 590 nm OD590 (time = 16 hours) − OD590 (time zero), Mean” value (“Δ OD 590 nm OD590” below) stood at 0.53. For the setting “0.2% w/v”, the “No. of replicates showing growth (out of 4)” value was found to be 4; the “Δ OD 450 nm = OD450” value is −0.53; the “Δ OD 590 nm OD590” value stood at 0.53. Besides, where the note is “[…] w/v”, the “No. of replicates showing growth (out of 4)” value came to 4; the “Δ OD 450 nm = OD450” value is listed as −0.50; the “Δ OD 590 nm OD590” value is recorded as 0.56. Besides, the “MBC (minimum biocidal concentration)” value (in 2.85% sodium cocoyl glycinate + 1.85% sodium lauroamphoacetate solution at pH 10, E. coli) is over 0.2 % w/v.

The record behind these values is patent US9320271B2, “Microbial composition” (Rohm and Haas Company, priority 2011, dated 2016).
